US20240308996A1, “PYRIDOPYRIDINES AND DERIVATIVES THEREOF AS SELECTIVE KINASE INHIBITORS” (University of Sharjah, priority 2023, published 2024)

Columns and labels:
HepG2 = assay: MTT assay, HepG2 HCC cell line; format: cell-based; details: Homo sapiens, 48 h, mean of triplicate assays ± SEM
Procedure: (§1) Two HCC cell lines (Hep3B and HepG2) were used for screening the antiproliferative activity of the synthesized compounds. The cell lines were obtained from the European Collection of Cell Cultures (ECACC, UK) and maintained in Dulbecco's Modified Eagle Medium (DMEM: Sigma-Aldrich) supplemented with 10% fetal bovine serum (FBS) and 1% penicillin/streptomycin and incubated at 37° C. in a 5% CO2 air atmosphere. In addition, WI-38 normal cell line was used to investigate the safety of these compounds.
(§2) MTT assay was conducted to calculate the IC50 of the compounds following the reported procedure . Briefly, the cells were seeded in 96-well tissue culture plates with a density of 5×10^4 cells/well and incubated overnight at 37° C. in a 5% CO2 air atmosphere. […] DMSO was used as a negative control. After 48 h, the media were aspirated, and replaced with media containing 0.5 mg/mL of MTT tetrazolium dye (Sigma-Aldrich) for 2 h at 37° C. Finally, the media were removed and 200 μL of DMSO was added to solubilize the formazan crystals. Absorbance was then measured at 570 nm using Varioskan Flash multimode plate reader (Thermo Scientific, Massachusetts, USA).

[1] = system: hepatocellular carcinoma cell lines; assay: Screening against HCC cell lines; format: cell-based
Procedure: The target compounds were tested against hepatocellular carcinoma cell lines. Compounds 1j. 13a. 13b. 13c. […] The mean inhibition percentage values are illustrated in Table 9.
as §1
MTT assay was conducted to calculate the IC50 of the compounds following the reported procedure . Briefly, the cells were seeded in 96-well tissue culture plates with a density of 5×10^4 cells/well and incubated overnight at 37° C. in a 5% CO2 air atmosphere. After that, cells were treated with the newly synthesized compounds or sorafenib as a positive control. DMSO was used as a negative control. After 48 h, the media were aspirated, and replaced with media containing 0.5 mg/mL of MTT tetrazolium dye (Sigma-Aldrich) for 2 h at 37° C. Finally, the media were removed and 200 μL of DMSO was added to solubilize the formazan crystals. Absorbance was then measured at 570 nm using Varioskan Flash multimode plate reader (Thermo Scientific, Massachusetts, USA).

Hep3B = assay: MTT assay, Hep3B HCC cell line; format: cell-based; details: Homo sapiens, 48 h, mean of triplicate assays ± SEM
Procedure: as §1, §2

SNB-19 = assay: NCI-60 cell line panel: SNB-19; format: cell-based; details: CNS Cancer, total growth inhibition
Procedure: (§3) It was carried out at the NCI, Bethesda, MD, USA, utilizing their standard protocol.

OVCAR-8 = assay: NCI-60 cell line panel: OVCAR-8; format: cell-based; details: Ovarian Cancer, total growth inhibition, in µM (unit assumed)
Procedure: as §3

SR = assay: NCI-60 cell line panel: SR; format: cell-based; details: Leukemia, total growth inhibition
Procedure: as §3

NCI-H460 = assay: NCI-60 cell line panel: NCI-H460; format: cell-based; details: Non-Small Cell Lung Cancer, total growth inhibition
Procedure: as §3

IGROV1 = assay: NCI-60 cell line panel: IGROV1; format: cell-based; details: Ovarian Cancer, total growth inhibition
Procedure: as §3

NCI/ADR-RES = assay: NCI-60 cell line panel: NCI/ADR-RES; format: cell-based; design: TGI: unit not given here; details: Ovarian Cancer, total growth inhibition
Procedure: as §3

TK-10 = assay: NCI-60 cell line panel: TK-10; format: cell-based; details: Renal Cancer
Procedure: as §3

786-0 = assay: NCI-60 cell line panel: 786-0; format: cell-based; details: Renal Cancer, total growth inhibition
Procedure: as §3

U251 = assay: NCI-60 cell line panel: U251; format: cell-based; design: TGI: unit not given here
Procedure: as §3

MDA-MB-231/ATCC = assay: NCI-60 cell line panel: MDA-MB-231/ATCC; format: cell-based; details: Breast Cancer
Procedure: as §3

SNB-75 = assay: NCI-60 cell line panel: SNB-75; format: cell-based; design: TGI: unit not given here; details: CNS Cancer, total growth inhibition
Procedure: as §3

HT29 = assay: NCI-60 cell line panel: HT29; format: cell-based
Procedure: as §3

panel of 50 kinases = assay: 50-kinase panel; format: biochemical
MCF7 = assay: NCI-60 cell line panel: MCF7; format: cell-based; details: Breast Cancer, total growth inhibition
Procedure: as §3

CAKI-1 = assay: NCI-60 cell line panel: CAKI-1; format: cell-based; design: TGI: unit not given here; details: Renal Cancer, total growth inhibition
Procedure: as §3

SF-268 = assay: NCI-60 cell line panel: SF-268; format: cell-based; details: CNS Cancer, total growth inhibition
Procedure: as §3

EKVX = assay: NCI-60 cell line panel: EKVX; format: cell-based; details: Non-Small Cell Lung Cancer, total growth inhibition, in µM (unit assumed)
Procedure: as §3

CCRF-CEM = assay: NCI-60 cell line panel: CCRF-CEM; format: cell-based; details: Leukemia
Procedure: as §3

OVCAR-3 = assay: NCI-60 cell line panel: OVCAR-3; format: cell-based; details: Ovarian Cancer, total growth inhibition
Procedure: as §3

OVCAR-5 = assay: NCI-60 cell line panel: OVCAR-5; format: cell-based; details: Ovarian Cancer, total growth inhibition
Procedure: as §3

UACC-257 = assay: NCI-60 cell line panel: UACC-257; format: cell-based; details: Melanoma
Procedure: as §3

UO-31 = assay: NCI-60 cell line panel: UO-31; format: cell-based; design: TGI: unit not given here; details: Renal Cancer, total growth inhibition
Procedure: as §3

BT-549 = assay: NCI-60 cell line panel: BT-549; format: cell-based; details: Breast Cancer, total growth inhibition
Procedure: as §3

SW-620 = assay: NCI-60 cell line panel: SW-620; format: cell-based; details: Colon Cancer, total growth inhibition
Procedure: as §3

MOLT-4 = assay: NCI-60 cell line panel: MOLT-4; format: cell-based; design: TGI: unit not given here; details: Leukemia, total growth inhibition
Procedure: as §3

COLO 205 = assay: NCI-60 cell line panel: COLO 205; format: cell-based; design: TGI: unit not given here; details: Colon Cancer
Procedure: as §3

OVCAR-4 = assay: NCI-60 cell line panel: OVCAR-4; format: cell-based; details: Ovarian Cancer, total growth inhibition, in µM (unit assumed)
Procedure: as §3

SK-MEL-2 = assay: NCI-60 cell line panel: SK-MEL-2; format: cell-based; design: TGI: unit not given here; details: Melanoma
Procedure: as §3

SK-MEL-28 = assay: NCI-60 cell line panel: SK-MEL-28; format: cell-based; details: Melanoma, total growth inhibition
Procedure: as §3

NCI-H23 = assay: NCI-60 cell line panel: NCI-H23; format: cell-based; details: Non-Small Cell Lung Cancer
Procedure: as §3

A498 = assay: NCI-60 cell line panel: A498; format: cell-based; details: Renal Cancer, total growth inhibition
Procedure: as §3

HOP-62 = assay: NCI-60 cell line panel: HOP-62; format: cell-based; details: Non-Small Cell Lung Cancer
Procedure: as §3

MALME-3M = assay: NCI-60 cell line panel: MALME-3M; format: cell-based; details: Melanoma
Procedure: as §3

MDA-MB-468 = assay: NCI-60 cell line panel: MDA-MB-468; format: cell-based; details: Breast Cancer, total growth inhibition
Procedure: as §3

M14 = assay: NCI-60 cell line panel: M14; format: cell-based; details: Melanoma
Procedure: as §3

HS 578T = assay: NCI-60 cell line panel: HS 578T; format: cell-based; details: Breast Cancer, HS 578T; total growth inhibition
Procedure: as §3

SN12C = assay: NCI-60 cell line panel: SN12C; format: cell-based; details: Renal Cancer, total growth inhibition
Procedure: as §3

HCT-15 = assay: NCI-60 cell line panel: HCT-15; format: cell-based; details: Colon Cancer, total growth inhibition
Procedure: as §3

NCI-H226 = assay: NCI-60 cell line panel: NCI-H226; format: cell-based; details: Non-Small Cell Lung Cancer
Procedure: as §3

NCI-H522 = assay: NCI-60 cell line panel: NCI-H522; format: cell-based; design: TGI: unit not given here; details: Non-Small Cell Lung Cancer
Procedure: as §3

PC-3 = assay: NCI-60 cell line panel: PC-3; format: cell-based; details: Prostate Cancer
Procedure: as §3

ACHN = assay: NCI-60 cell line panel: ACHN; format: cell-based; details: Renal Cancer, total growth inhibition
Procedure: as §3

A549/ATCC = assay: NCI-60 cell line panel: A549/ATCC; format: cell-based; details: Non-Small Cell Lung Cancer, total growth inhibition
Procedure: as §3

DU-145 = assay: NCI-60 cell line panel: DU-145; format: cell-based; details: Prostate Cancer, total growth inhibition
Procedure: as §3

RXF 393 = assay: NCI-60 cell line panel: RXF 393; format: cell-based; details: Renal Cancer, total growth inhibition
Procedure: as §3

SK-OV-3 = assay: NCI-60 cell line panel: SK-OV-3; format: cell-based; details: Ovarian Cancer, total growth inhibition
Procedure: as §3

NCI-H322M = assay: NCI-60 cell line panel: NCI-H322M; format: cell-based; details: Non-Small Cell Lung Cancer, total growth inhibition
Procedure: as §3

O=C(Nc1ccc(-c2cc(C(=O)Nc3ccccn3)c3ncccc3n2)cc1)Nc1ccc(F)c(C(F)(F)F)c1 [Compound 1j, 2-(4-(3-(4-Fluoro-3-(trifluoromethyl)phenyl)ureido)phenyl)-N-(pyridin-2-yl)-1,5-naphthyridine-4-carboxamide]
IC50 (HepG2): 3.68 ± 0.22 µM | inhibition activity against hepatocellular carcinoma cell lines compared with sorafenib [1]: higher inhibition activity than sorafenib | IC50 (Hep3B): 3.87 ± 0.13 µM

CNC(=O)c1cc(-c2ccc(NC(=S)Nc3cc(C(F)(F)F)cc(C(F)(F)F)c3)cc2)nc2cccnc12 [Compound 1m, 2-(4-(3-(3,5-Bis(trifluoromethyl)phenyl)thioureido)phenyl)-N-methyl-1,5-naphthyridine-4-carboxamide]
IC50 (HepG2): 5.74 ± 0.2 µM | inhibition activity against hepatocellular carcinoma cell lines compared with sorafenib [1]: inhibition activity comparable to sorafenib | IC50 (Hep3B): 6.56 ± 0.31 µM

CNC(=O)c1cc(-c2ccc(NC(=O)Nc3ccc(N4CCOCC4)c(C(F)(F)F)c3)cc2)nc2cccnc12 [Compound 13a, N-Methyl-2-(4-(3-(4-morpholino-3-(trifluoromethyl)phenyl)ureido)phenyl)-1,5-naphthyridine-4-carboxamide]
IC50 (HepG2): 1.27 ± 0.14 µM | inhibition activity against hepatocellular carcinoma cell lines compared with sorafenib [1]: higher inhibition activity than sorafenib | IC50 (Hep3B): 1.89 ± 0.18 µM

CNC(=O)c1cc(Oc2ccc(NC(=O)Nc3ccc(Cl)c(C(F)(F)F)c3)cc2)ccn1 [Sorafenib, reference compound]
TGI (SNB-19): 3.98 µM | TGI (OVCAR-8): 12.59 | TGI (SR): 63.1 µM | TGI (NCI-H460): 5.01 µM | TGI (IGROV1): 10 µM | TGI (NCI/ADR-RES): 7.94 | IC50 (TK-10; Homo sapiens): 3.98 µM | TGI (TK-10; total growth inhibition): 10 µM | TGI (786-0): 5.01 µM | TGI (U251; CNS Cancer, total growth inhibition): 3.16 | IC50 (U251; Homo sapiens, U-251, CNS Cancer): 2 µM | TGI (MDA-MB-231/ATCC; total growth inhibition): 3.16 µM | IC50 (MDA-MB-231/ATCC; Homo sapiens): 1.26 µM | TGI (SNB-75): 3.98 | TGI (HT29; Colon Cancer, total growth inhibition): 5.01 µM | IC50 (HT29; Homo sapiens, HT-29, Colon Cancer): 2 µM | number of kinases inhibited (more than 50% inhibition) (panel of 50 kinases): 22 kinases | TGI (MCF7): 7.94 µM | TGI (CAKI-1): 12.59 | TGI (SF-268): 3.98 µM | TGI (EKVX): 19.95 | IC50 (CCRF-CEM; Homo sapiens): 2 µM | TGI (CCRF-CEM; total growth inhibition): 5.01 µM | TGI (OVCAR-3): 3.98 µM | TGI (OVCAR-5): 6.31 µM | IC50 (UACC-257; Homo sapiens): 2 µM | TGI (UACC-257; total growth inhibition): 5.01 µM | TGI (UO-31): 6.31 | TGI (BT-549): 3.98 µM | TGI (SW-620): 5.01 µM | TGI (MOLT-4): 100 | TGI (COLO 205; total growth inhibition): 3.16 | IC50 (COLO 205; Homo sapiens): 2 µM | TGI (OVCAR-4): 25.12 | IC50 (SK-MEL-2; Homo sapiens): 2 µM | TGI (SK-MEL-2; total growth inhibition): 6.31 | TGI (SK-MEL-28): 2.51 µM | IC50 (NCI-H23; Homo sapiens): 2 µM | TGI (NCI-H23; total growth inhibition): 5.01 µM | TGI (A498): 3.16 µM | IC50 (HOP-62; Homo sapiens): 2 µM | TGI (HOP-62; total growth inhibition): 3.16 µM | IC50 (MALME-3M; Homo sapiens): 2 µM | TGI (MALME-3M; total growth inhibition, in µM (unit assumed)): 39.81 | TGI (MDA-MB-468): 7.94 µM | IC50 (M14; Homo sapiens): 2 µM | TGI (M14; total growth inhibition): 3.16 µM | TGI (HS 578T): 3.98 µM | TGI (SN12C): 3.16 µM | TGI (HCT-15): 3.16 µM | IC50 (NCI-H226; Homo sapiens): 2 µM | TGI (NCI-H226; total growth inhibition): 3.16 µM | IC50 (NCI-H522; Homo sapiens): 2 µM | TGI (NCI-H522; total growth inhibition): 5.01 | IC50 (PC-3; Homo sapiens): 2 µM | TGI (PC-3; total growth inhibition): 5.01 µM | TGI (ACHN): 10 µM | TGI (A549/ATCC): 7.94 µM | TGI (DU-145): 7.94 µM | TGI (RXF 393): 5.01 µM | TGI (SK-OV-3): 5.01 µM | TGI (NCI-H322M): 5.01 µM
